Measured values reported in US20170188607A1, “SOLUBILIZATION OF A SWEET MODULATOR AND FLAVOR” (Firmenich SA, priority 2014, published 2017).

Assay: Supersaturation relative to the intrinsic solubility of the compound
Format: physicochemical
Description: A concentrated solution 1 of (S)-1-(3-(((4-amino-2,2-dioxido-1H-benzo[c][1,2,6]thiadiazin-5-yl)oxy)methyl)piperidin-1-yl)-3-methylbutan-1-one at 0.3% (w/w) (3000 ppm) was prepared in water. pH was adjusted to 11 using NaOH to form (S)-1-(3-(((4-amino-2,2-dioxido-1H-benzo[c][1,2,6]thiadiazin-5-yl)oxy)methyl)piperidin-1-yl)-3-methylbutan-1-one sodium salt and obtain an homogeneous solution. Next, a syrup was prepared by mixing an aqueous solution of High Fructose Corn Syrup (HFCS), citric acid and deionized water. The final syrup contained 34% fructose, 0.68% citric acid, 0.1% sodium citrate and 65.22% water, with a pH of 2. An aliquot of solution 1 was diluted 100 times with the syrup to yield a final concentration of 30 ppm of (S)-1-(3-(((4-amino-2,2-dioxido-1H-benzo[c][1,2,6]thiadiazin-5-yl)oxy)methyl)piperidin-1-yl)-3-methylbutan-1-one, i.e. about 18 times above the intrinsic solubility of the compound at 3° C. The sample was kept at 3° C. and the amount of (S)-1-(3-(((4-amino-2,2-dioxido-1H-benzo[c][1,2,6]thiadiazin-5-yl)oxy)methyl)piperidin-1-yl)-3-methylbutan-1-one was measured by UV spectroscopy as a function of time. The amount of (S)-1-(3-(((4-amino-2,2-dioxido-1H-benzo[c][1,2,6]thiadiazin-5-yl)oxy)methyl)piperidin-1-yl)-3-methylbutan-1-one was reduced to 28 ppm after 1 week and first crystals were visually observed. […]
A concentrated solution 1 of (S)-1-(3-(((4-amino-2,2-dioxido-1H-benzo[c][1,2,6]thiadiazin-5-yl)oxy)methyl)piperidin-1-yl)-3-methylbutan-1-one at […] was prepared in water. pH was adjusted to 11 using NaOH to form (S)-1-(3-(((4-amino-2,2-dioxido-1H-benzo[c][1,2,6]thiadiazin-5-yl)oxy)methyl)piperidin-1-yl)-3-methylbutan-1-one sodium salt and obtain an homogeneous solution. […] The sample was kept at 3° C. and the amount of (S)-1-(3-(((4-amino-2,2-dioxido-1H-benzo[c][1,2,6]thiadiazin-5-yl)oxy)methyl)piperidin-1-yl)-3-methylbutan-1-one was measured by UV spectroscopy as a function of time. […]

times above the intrinsic solubility of the compound (final concentration of 18 ppm, at 3° C.): about 11 times
times above the intrinsic solubility of the compound (final concentration of 30 ppm, at 3° C.): about 18 times
times above the intrinsic solubility of the compound (final concentration of 100 ppm, at 20° C.): about 15 times
SMILES: CC(C)CC(=O)N1CCC[C@H](COc2cccc3c2C(N)=NS(=O)(=O)N3)C1 [(S)-1-(3-(((4-amino-2,2-dioxido-1H-benzo[c][1,2,6]thiadiazin-5-yl)oxy)methyl)piperidin-1-yl)-3-methylbutan-1-one]
